One may read the EC50 as the midpoint of the concentration-response curve. A lower EC50 goes with a more potent agent.

Counter-ions that a name gives are not always drawn.

In this test the test system is HCV replicon (HCV 1b-377-neo replicon cells, Huh7). Briefly: HCV replicon cell-based FRET assay. The following applies: Hepatitis C virus, Huh-7. Here is the method:
HCV Replion assays were utilized in the present invention, and were prepared, conducted and validated as follows:
An HCV replicon whole cell system was established as described by Lohmann V, Korner F, Koch J, Herian U, Theilmann L, Bartenschlager R., Science 285(5424): 110–3 (1999). This system enabled us to evaluate the effects of our HCV Protease compounds on HCV RNA replication. Briefly, using the HCV strain 1B sequence described in the Lohmann paper (Assession number: AJ238799), an HCV cDNA was synthesized by Operon Technologies, Inc. (Alameda, Calif.), and the full-length replicon was then assembled in plasmid pGem9zf(+) (Promega, Madison, Wis.) using standard molecular biology techniques. The replicon consists of (i) the HCV 5′ UTR fused to the first 12 amino acids of the capsid protein, (ii) the neomycin phosphotransferase gene (neo), (iii) the IRES from encephalomyocarditis virus (EMCV), and (iv) HCV NS3 to NS5B genes and the HCV 3′ UTR. Plasmid DNAs were linearized with ScaI and RNA transcripts were synthesized in vitro using the T7 MegaScript transcription kit (Ambion, Austin, Tex.) according to manufacturer's directions. To generate cell lines, 4×10^6 Huh-7 cells (kindly provided by R. Bartenschlager and available from Health Science Research Resources Bank, Japan Health Sciences Foundation) were electroporated (GenePulser System, Bio-Rad) with 10 microgram(“μg”) of RNA transcript and plated into 100-mm dishes. After 24 h, selective media containing 1.0 milligrams/milliliter (“mg/ml”) G418 was added and media was changed every 3 to 5 days. Approximately 4 weeks after electroporation, small colonies were visible which were isolated and expanded for further analysis. These cell lines were maintained at 37° C., 5% CO2, 100% relative humidity in DMEM (Cat# 11965-084) Gibco-BRL, Rockville, Md., with 10% heat inactivated calf serum (Sigma), 10 ml of 100× penicillin/streptomycin (Cat# 15140-122) Gibco-BRL, Rockville, Md., Geneticin (Cat# 10131-027) Gibco-BRL, Rockville, Md. at 1 mg/ml. One of the cell lines (deposited as ATCC Accession No. PTA-4583 in the American Type Culture Collection) which had approximately 3,000 copies of HCV replicon RNA/cell was used for development of the assay (HCV 1b-377-neo replicon cells).
Huh7 cells, constitutively expressing the HCV replicon, were grown in Dulbecco's Modified Eagle Media (DMEM) containing 10% Fetal calf serum (FCS) and 1 mg/ml G418 (Gibco-BRL). Cells were seeded the night before (1.5×10^4 cells/well) in 96-well tissue-culture sterile plates. Compound and no compound controls were prepared in DMEM containing 4% FCS, 1:100 Penicillin/Streptomysin, 1:100 L-glutamine and 5% DMSO in the dilution plate (0.5% DMSO final concentration in the assay). Compound/DMSO mixes were added to the cells and incubated for 4 days at 37° C. After 4 days, cells were first assessed for cytotoxicity using alamar Blue (Trek Diagnotstic Systems) for a CC50 reading. The toxicity of compound (CC50) was determined by adding 1/10th volume of alamar Blue to the media incubating the cells. After 4 hr, the fluorescence signal from each well was read, with an excitation wavelength at 530 nm and an emission wavelength of 580 nm, using the Cytofluor Series 4000 (Perspective Biosystems). Plates were then rinsed thoroughly with Phosphate-Buffered Saline (PBS) (3 times 150 μl). The cells were lysed with 25 μl of a lysis assay reagent containing an HCV protease substrate (5× cell Luciferase cell culture lysis reagent (Promega #E153A) diluted to 1× with distilled water, NaCl added to 150 mM final, the FRET peptide diluted to 10 μM final from a 2 mM stock in 100% DMSO). The HCV protease substrate (FRET peptide; AnaSpec, Inc. cat #22991, described by Taliani et al. in Anal. Biochem. 240(2):60–67 (1996)) contains a fluorescence donor, EDANS, near one end of the peptide and an acceptor, DABCYL, near the other end. […]
With `CC(C)(C)OC(=O)N[C@H]1CCCCC/C=C\[C@@H]2C[C@@]2(C(=O)O)NC(=O)[C@@H]2C[C@@H](Oc3nccc4ccccc34)CN2C1=O` [Compound 1, 14-tert-Butoxycarbonylamino-18-(isoquinolin-1-yloxy)-2,15-dioxo-3,16-diaza-tricyclo[14.3.0.0^4,6]nonadec-7-ene-4-carboxylic acid], the EC50 was 500 to 5000 nM.

Compound `CC(C)S(=O)(=O)NC(=O)[C@@]12C[C@H]1/C=C\CCCCC[C@H](NC(=O)OC(C)(C)C)C(=O)N1C[C@H](Oc3nccc4ccccc34)C[C@H]1C(=O)N2` [Compound 3, [18-(Isoquinolin-1-yloxy)-2,15-dioxo-4-(propane-2-sulfonylaminocarbonyl)-3,16-diaza-tricyclo-[14.3.0.0^4,6]nonadec-7-en-14-yl]-carbamic acid tert-butyl ester] gave a 50% effective concentration (EC50) of 50 to 500 nM.

Regarding `CC(C)(C)OC(=O)N[C@H]1CCCCC/C=C\[C@@H]2C[C@@]2(C(=O)NS(=O)(=O)C2CC2)NC(=O)[C@@H]2C[C@@H](Oc3nccc4ccccc34)CN2C1=O` [Compound 4, [4-Cyclopropanesulfonylaminocarbonyl-18-(isoquinolin-1-yloxy)-2,15-dioxo-3,16-diaza-tricyclo[14.3.0.0^4,6]nonadec-7-en-14-yl]-carbamic acid tert-butyl ester], the EC50 was less than 50 nM.

The compound `CC(C)(C)OC(=O)N[C@H]1CCCCC/C=C\[C@@H]2C[C@@]2(C(=O)NS(=O)(=O)C2(Cc3ccccc3)CC2)NC(=O)[C@@H]2C[C@@H](Oc3nccc4ccccc34)CN2C1=O` [Compound 5, [4-(1-Benzyl-cyclopropanesulfonylaminocarbonyl)-18-(isoquinolin-1-yloxy)-2,15-dioxo-3,16-diaza-tricyclo[14.3.0.0^4,6]nonadec-7-en-14-yl]-carbamic acid tert-butyl ester] yielded an EC50 of 50 to 500 nM.

Take `CCCC1(S(=O)(=O)NC(=O)[C@@]23C[C@H]2/C=C\CCCCC[C@H](NC(=O)OC(C)(C)C)C(=O)N2C[C@H](Oc4nccc5ccccc45)C[C@H]2C(=O)N3)CC1` [Compound 6, [18-(Isoquinolin-1-yloxy)-2,15-dioxo-4-(1-propyl-cyclopropanesulfonylaminocarbonyl)-3,16-diaza-tricyclo[14.3.0.0^4,6]nonadec-7-en-14-yl]-carbamic acid tert-butyl ester]: the EC50 is less than 50 nM.

As to `CCCC1(S(=O)(=O)NC(=O)[C@@]23C[C@H]2CCCCCCC[C@H](NC(=O)OC(C)(C)C)C(=O)N2C[C@H](Oc4nccc5ccccc45)C[C@H]2C(=O)N3)CC1` [Compound 7, [18-(Isoquinolin-1-yloxy)-2,15-dioxo-4-(1-propyl-cyclopropanesulfonylaminocarbonyl)-3,16-diaza-tricyclo[14.3.0.0^4,6]nonadec-14-yl]-carbamic acid tert-butyl ester], the EC50 is less than 50 nM.

Consider `CC(C)(C)OC(=O)N[C@H]1CCCCC/C=C\[C@@H]2C[C@@]2(C(=O)NS(=O)(=O)C2(C)CC2)NC(=O)[C@@H]2C[C@@H](Oc3nccc4ccccc34)CN2C1=O` [Compound 8, [18-(Isoquinolin-1-yloxy)-4-(1-methyl-cyclopropanesulfonylaminocarbonyl)-2,15-dioxo-3,16-diaza-tricyclo[14.3.0.0^4,6]nonadec-7-en-14-yl]-carbamic acid tert-butyl ester], for which the EC50 was less than 50 nM.

`CC(C)(C)OC(=O)N[C@H]1CCCCC/C=C\[C@@H]2C[C@@]2(C(=O)NS(=O)(=O)C2CCC2)NC(=O)[C@@H]2C[C@@H](Oc3nccc4ccccc34)CN2C1=O` [Compound 9, [4-Cyclobutanesulfonylaminocarbonyl-18-(isoquinolin-1-yloxy)-2,15-dioxo-3,16-diaza-tricyclo[14.3.0.0^4,6]nonadec-7-en-14-yl]-carbamic acid tert-butyl ester] yielded an EC50 of less than 50 nM.

With `CC(C)(C)OC(=O)N[C@H]1CCCCCCC[C@@H]2C[C@@]2(C(=O)NS(=O)(=O)C2CC2)NC(=O)[C@@H]2C[C@@H](Oc3nccc4ccccc34)CN2C1=O` [Compound 10, [4-Cyclopropanesulfonylaminocarbonyl-18-(isoquinolin-1-yloxy)-2,15-dioxo-3,16-diaza-tricyclo[14.3.0.0^4,6]nonadec-14-yl]-carbamic acid tert-butyl ester], the concentration for a half-maximal effect (EC50) is less than 50 nM.

Take `N[C@H]1CCCCC/C=C\[C@@H]2C[C@@]2(C(=O)NS(=O)(=O)C2CC2)NC(=O)[C@@H]2C[C@@H](Oc3nccc4ccccc34)CN2C1=O` [Compound 11, Cyclopropanesulfonic acid [14-amino-18-(isoquinolin-1-yloxy)-2,15-dioxo-3,16-diaza-tricyclo[14.3.0.0^4,6]nonadec-7-ene-4-carbonyl]-amide bis hydrochloride]: the EC50 was in the range of 50 to 500 nM.

`COC(=O)N[C@H]1CCCCC/C=C\[C@@H]2C[C@@]2(C(=O)NS(=O)(=O)C2CC2)NC(=O)[C@@H]2C[C@@H](Oc3nccc4ccccc34)CN2C1=O` [Compound 12, [4-Cyclopropanesulfonylaminocarbonyl-18-(isoquinolin-1-yloxy)-2,15-dioxo-3,16-diaza-tricyclo[14.3.0.0^4,6]nonadec-7-en-14-yl]-carbamic acid methyl ester] returned an EC50 of less than 50 nM.

The compound `CC(C)(C)COC(=O)N[C@H]1CCCCC/C=C\[C@@H]2C[C@@]2(C(=O)NS(=O)(=O)C2CC2)NC(=O)[C@@H]2C[C@@H](Oc3nccc4ccccc34)CN2C1=O` [Compound 13, [4-Cyclopropanesulfonylaminocarbonyl-18-(isoquinolin-1-yloxy)-2,15-dioxo-3,16-diaza-tricyclo[14.3.0.0^4,6]nonadec-7-en-14-yl]-carbamic acid 2,2-dimethyl-propyl ester] showed an EC50 of less than 50 nM.

`O=C(N[C@H]1CCCCC/C=C\[C@@H]2C[C@@]2(C(=O)NS(=O)(=O)C2CC2)NC(=O)[C@@H]2C[C@@H](Oc3nccc4ccccc34)CN2C1=O)OC1CCOCC1` [Compound 14, [4-Cyclopropanesulfonylaminocarbonyl-18-(isoquinolin-1-yloxy)-2,15-dioxo-3,16-diaza-tricyclo[14.3.0.0^4,6]nonadec-7-en-14-yl]-carbamic acid tetrahydro-pyran-4-yl ester] returned a half-maximal effective concentration (EC50) of less than 50 nM.

For the compound `O=C(N[C@H]1CCCCC/C=C\[C@@H]2C[C@@]2(C(=O)NS(=O)(=O)C2CC2)NC(=O)[C@@H]2C[C@@H](Oc3nccc4ccccc34)CN2C1=O)O[C@H]1CCOC1` [Compound 15, [4-Cyclopropanesulfonylaminocarbonyl-18-(isoquinolin-1-yloxy)-2,15-dioxo-3,16-diaza-tricyclo[14.3.0.0^4,6]nonadec-7-en-14-yl]-carbamic acid tetrahydro-furan-3-yl ester], the EC50 is less than 50 nM.

Regarding `CC(C)OC(=O)N[C@H]1CCCCC/C=C\[C@@H]2C[C@@]2(C(=O)NS(=O)(=O)C2CC2)NC(=O)[C@@H]2C[C@@H](Oc3nccc4ccccc34)CN2C1=O` [Compound 16, [4-Cyclopropanesulfonylaminocarbonyl-18-(isoquinolin-1-yloxy)-2,15-dioxo-3,16-diaza-tricyclo[14.3.0.0^4,6]nonadec-7-en-14-yl]-carbamic acid isopropyl ester], the EC50 was less than 50 nM.

Regarding `COc1ccc2c(OC3CC4C(=O)NC5(C(=O)O)CC5C=CCCCCCC(NC(=O)OC(C)(C)C)C(=O)N4C3)nccc2c1` (stereo not shown) [Compound 17A], the EC50 is 50 to 500 nM.
